Experimental data from patent US10080366B2, “Agent for increasing sugar content in fruit” (RIKEN, priority 2012, dated 2018).
Where two headings read alike, the source gives them in different places.

Tests used:
[1] = tested on: harvested fruit of grape (variety: Barikan); details: for Sugar content (%) on date of application (Jun. 2): before application
Description: The fruit of grape was maintained in an air-conditioned greenhouse (temperature: 25° C.), and measured for the mass over time. The sugar content of the fruit was measured before the application and 8 days after the application with a sugar content meter. Next, on the assumption that the change in the mass of the fruit was entirely due to the change in water content, calculated values of the amount of decrease in mass and the sugar content on the date (June 2) of the application were determined […] by using the following calculation formula. (Calculated as follows: the sugar content (%) calculated value))=the sugar content (%) before application×the mass (g) on the date of application/the mass (g) on the date of measurement))

[2] = tested on: fruit of grape (variety: Red Globe)
Description: Agents for increasing a sugar content in a fruit (containing Sorbon T-20 as a spreader/sticker at a final concentration of 200 μL/L) diluted with water to have the concentrations of potassium hydrogen carbonate shown in Table 4 were prepared. The mass of fruit of grape (variety: Red Globe) purchased on the market was measured. Then, the prepared agents for increasing a sugar content in a fruit were applied by spraying to the fruit of grape, which was then allowed to stand in an air-conditioned greenhouse (temperature: 25° C.). The mass of the fruit of grape was measured over time (date of application: Mar. 10, 2011). In addition, as a control, the mass of untreated grape was measured on each date of measurement in the same manner. […] Note that the decrease ratio (cumulative, %) represents the percentage (%) of the mass decreased from the date of application to each of the dates of measurement, and the decrease ratio (%/day) represents the average ratio (%) of decrease in mass in a period between each of the dates of measurement and the preceding date of measurement (=(the mass (g) on the preceding date of measurement of each of the dates of measurement−the mass (g) on the date of measurement)/the mass (g) on the preceding date of measurement of the date of measurement/the number of days from the preceding date of measurement of the date of measurement to the date of measurement×100).

Cherry (Sato Nishiki) = details: 10 g/L, three times at intervals of one week; harvested four weeks later
Description: (§1) To each of the plants shown in Table 15 below, an aqueous potassium hydrogen carbonate solution (10 g/L) was applied three times at intervals of one week about one month before the harvest time. Each of the plants was harvested four weeks later. The degree of the fruit cracking of the fruit was compared with that of untreated fruit, and a fruit cracking-suppression ratio was determined. […] The fruit cracking ratio (%)=the number of pieces of the fruit which underwent fruit cracking/the total number of pieces of the fruit×100 The fruit cracking-suppression ratio (%)=(1−the fruit cracking ratio (%) of a treated group/the fruit cracking ratio (%) of an untreated group)×100

[3] = tested on: Grape (Nagano Purple), Grape (Riesling); details: 10 g/L, three times at intervals of one week
Description: as §1

Tomato (Regina) = details: 10 g/L, three times at intervals of one week
Description: as §1

[4] = tested on: fruit of trellised grape (variety: Pinot noir)
Description: To fruit of trellised grape (variety: Pinot noir), an aqueous potassium hydrogen carbonate solution (20 g/L) was applied three times at intervals of one week. The fruit was harvested 21 days after the first application, and the sugar content, acidity, and amino acid concentration were measured. In addition, the harvested fruit was kept in an air-conditioned greenhouse (25° C.) for 10 days, and the drying state of the fruit was observed.

Tomato = details: dilution ratio 100 (10 g/L); 6 days after treatment
Mikan = details: dilution ratio 100 (10 g/L); 6 days after treatment
[5] = 10 g/L, 25° C., mass 100 g on date of application

SMILES: O=C([O-])O.[K+] [Potassium hydrogen carbonate, potassium hydrogen carbonate]
- decrease of mass of fruit in 8 days (June 2 to June 10) ([1]; 10 g/L): 27.3%
- Sugar content (%) 8 days later, actually measured value ([1]; 10 g/L, 25° C.): 24.0%
- Sugar content (%) 8 days later, actually measured value ([1]; 10 g/L, 25° C., listed as potassium hydrogen carbonate): 24%
- Mass (g) 6 days later (Jun. 8) [1, 5]: 79.4 g
- Mass (g) 8 days later (Jun. 10) [1, 5]: 72.7 g
- Sugar content (%) 8 days later, calculated value ([1]; 10 g/L, calculated from decrease in mass): 24.8%
- Sugar content (%) on date of application (Jun. 2) [1]: 18.0%
- Sugar content (%) on date of application (Jun. 2) ([1]; listed as potassium hydrogen carbonate): 18%
- ratio of decrease in mass compared with untreated ([2]; 5 g/L and 10 g/L): higher ratios of decrease in mass than the untreated fruit
- Mass ([2]; 5 g/L, Mar. 10 (date of application)): 240.4 g
- Decrease ratio (%/day) ([2]; 5 g/L, Mar. 11): 2.6 %/day
- Decrease ratio (cumulative %) ([2]; 5 g/L, Mar. 11): 2.6%
- Mass ([2]; 5 g/L, Mar. 11): 234.1 g
- Decrease ratio (%/day) ([2]; 5 g/L, Mar. 14): 2.5 %/day
- Decrease ratio (cumulative %) ([2]; 5 g/L, Mar. 14): 9.9%
- Mass ([2]; 5 g/L, Mar. 14): 216.7 g
- Decrease ratio (%/day) ([2]; 5 g/L, Mar. 15): 2.5 %/day
- Decrease ratio (cumulative %) ([2]; 5 g/L, Mar. 15): 12.1%
- Mass ([2]; 5 g/L, Mar. 15): 211.4 g
- Decrease ratio (%/day) ([2]; 5 g/L, Mar. 16): 2.2 %/day
- Decrease ratio (cumulative %) ([2]; 5 g/L, Mar. 16): 14.0%
- Mass ([2]; 5 g/L, Mar. 16): 206.7 g
- Decrease ratio (%/day) ([2]; 5 g/L, Mar. 18): 2.1 %/day
- Decrease ratio (cumulative %) ([2]; 5 g/L, Mar. 18): 17.7%
- Mass ([2]; 5 g/L, Mar. 18): 197.8 g
- Decrease ratio (%/day) ([2]; 5 g/L, Mar. 22): 2.0 %/day
- Decrease ratio (cumulative %) ([2]; 5 g/L, Mar. 22): 24.1%
- Mass ([2]; 5 g/L, Mar. 22): 182.4 g
- Decrease ratio (%/day) ([2]; 5 g/L, Mar. 23): 2.8 %/day
- Decrease ratio (cumulative %) ([2]; 5 g/L, Mar. 23): 26.3%
- Mass ([2]; 5 g/L, Mar. 23): 177.3 g
- Decrease ratio (%/day) ([2]; 5 g/L, Mar. 24): 2.2 %/day
- Decrease ratio (cumulative %) ([2]; 5 g/L, Mar. 24): 27.8%
- Mass ([2]; 5 g/L, Mar. 24): 173.5 g
- Decrease ratio (%/day) ([2]; 5 g/L, Mar. 30): 2.3 %/day
- Decrease ratio (cumulative %) ([2]; 5 g/L, Mar. 30): 37.8%
- Mass ([2]; 5 g/L, Mar. 30): 149.4 g
- Mass ([2]; 10 g/L, Mar. 10 (date of application)): 200.5 g
- Decrease ratio (%/day) ([2]; 10 g/L, Mar. 11): 2.9 %/day
- Decrease ratio (cumulative %) ([2]; 10 g/L, Mar. 11): 2.9%
- Mass ([2]; 10 g/L, Mar. 11): 194.8 g
- Decrease ratio (%/day) ([2]; 10 g/L, Mar. 14): 3 %/day
- Decrease ratio (cumulative %) ([2]; 10 g/L, Mar. 14): 11.6%
- Mass ([2]; 10 g/L, Mar. 14): 177.2 g
- Decrease ratio (%/day) ([2]; 10 g/L, Mar. 15): 3.3 %/day
- Decrease ratio (cumulative %) ([2]; 10 g/L, Mar. 15): 14.5%
- Mass ([2]; 10 g/L, Mar. 15): 171.4 g
- Decrease ratio (%/day) ([2]; 10 g/L, Mar. 16): 2.9 %/day
- Decrease ratio (cumulative %) ([2]; 10 g/L, Mar. 16): 17.0%
- Mass ([2]; 10 g/L, Mar. 16): 166.5 g
- Decrease ratio (%/day) ([2]; 10 g/L, Mar. 18): 2.7 %/day
- Decrease ratio (cumulative %) ([2]; 10 g/L, Mar. 18): 21.5%
- Mass ([2]; 10 g/L, Mar. 18): 157.4 g
- Decrease ratio (%/day) ([2]; 10 g/L, Mar. 22): 2.5 %/day
- Decrease ratio (cumulative %) ([2]; 10 g/L, Mar. 22): 29.5%
- Mass ([2]; 10 g/L, Mar. 22): 141.3 g
- Decrease ratio (%/day) ([2]; 10 g/L, Mar. 23): 3.6 %/day
- Decrease ratio (cumulative %) ([2]; 10 g/L, Mar. 23): 32.0%
- Mass ([2]; 10 g/L, Mar. 23): 136.3 g
- Decrease ratio (%/day) ([2]; 10 g/L, Mar. 24): 2.8 %/day
- Decrease ratio (cumulative %) ([2]; 10 g/L, Mar. 24): 33.9%
- Mass ([2]; 10 g/L, Mar. 24): 132.5 g
- Decrease ratio (%/day) ([2]; 10 g/L, Mar. 30): 2.9 %/day
- Decrease ratio (cumulative %) ([2]; 10 g/L, Mar. 30): 45.3%
- Mass ([2]; 10 g/L, Mar. 30): 109.7 g
- Fruit cracking-suppression ratio (Cherry (Sato Nishiki)): 98%
- Fruit cracking-suppression ratio ([3]; Nagano Purple): 97%
- Fruit cracking-suppression ratio ([3]; Riesling): 98%
- Fruit cracking-suppression ratio (Tomato (Regina)): 95%
- Acidity ([4]; 20 g/L x3, at harvest): 0.8
- Amino acid concentration ([4]; 20 g/L x3, at harvest): 2800 µg/L
- State 10 days after harvest (drying state) ([4]; 20 g/L x3, kept in greenhouse (25° C.) for 10 days): dried faster than the untreated grape
- Sugar content (%) ([4]; 20 g/L, three times at intervals of one week, at harvest, 21 days after first application): 46%
- Ratio (%) of decrease in body weight of fruit (Tomato): 14.8%
- Ratio (%) of decrease in body weight of fruit (Mikan): 12.6%
